Measurements as given in US9682995B2, “Amino-substituted isothiazoles” (BAYER PHARMA AKTIENGESELLSCHAFT, priority 2013, dated 2017).

How the values were obtained:
Assay in all cases: Kinase Profiling (KINOMEscan)
Format in all cases: binding
[1] = molecular target: 456 kinases (of these 395 non-mutant kinases) (Homo sapiens, UniProt Q13557); conditions: CAMK2D; 10 μM
[2] = molecular target: 456 kinases (of these 395 non-mutant kinases) (Homo sapiens, UniProt P07948); conditions: LYN; 10 μM
[3] = molecular target: 456 kinases (of these 395 non-mutant kinases) (Homo sapiens, UniProt Q9HAZ1); conditions: CLK4; 10 μM
[4] = molecular target: 456 kinases (of these 395 non-mutant kinases) (Homo sapiens, UniProt Q9H422); conditions: HIPK3; 10 μM
[5] = molecular target: 456 kinases (of these 395 non-mutant kinases) (Homo sapiens, UniProt P41240); conditions: CSK; 10 μM
[6] = molecular target: 456 kinases (of these 395 non-mutant kinases) (Homo sapiens, UniProt P42336, E542K); conditions: PIK3CA(E542K); 10 μM
[7] = molecular target: 456 kinases (of these 395 non-mutant kinases) (Homo sapiens, UniProt P00533, L858R/T790M); conditions: EGFR(L858R,T790M); 10 μM
[8] = molecular target: 456 kinases (of these 395 non-mutant kinases) (Homo sapiens, UniProt Q06418); conditions: TYRO3; 10 μM
Chain of 456 kinases (of these 395 non-mutant kinases) (Homo sapiens, UniProt Q06418) (Q06418 41-890 limits assumed, change not shown): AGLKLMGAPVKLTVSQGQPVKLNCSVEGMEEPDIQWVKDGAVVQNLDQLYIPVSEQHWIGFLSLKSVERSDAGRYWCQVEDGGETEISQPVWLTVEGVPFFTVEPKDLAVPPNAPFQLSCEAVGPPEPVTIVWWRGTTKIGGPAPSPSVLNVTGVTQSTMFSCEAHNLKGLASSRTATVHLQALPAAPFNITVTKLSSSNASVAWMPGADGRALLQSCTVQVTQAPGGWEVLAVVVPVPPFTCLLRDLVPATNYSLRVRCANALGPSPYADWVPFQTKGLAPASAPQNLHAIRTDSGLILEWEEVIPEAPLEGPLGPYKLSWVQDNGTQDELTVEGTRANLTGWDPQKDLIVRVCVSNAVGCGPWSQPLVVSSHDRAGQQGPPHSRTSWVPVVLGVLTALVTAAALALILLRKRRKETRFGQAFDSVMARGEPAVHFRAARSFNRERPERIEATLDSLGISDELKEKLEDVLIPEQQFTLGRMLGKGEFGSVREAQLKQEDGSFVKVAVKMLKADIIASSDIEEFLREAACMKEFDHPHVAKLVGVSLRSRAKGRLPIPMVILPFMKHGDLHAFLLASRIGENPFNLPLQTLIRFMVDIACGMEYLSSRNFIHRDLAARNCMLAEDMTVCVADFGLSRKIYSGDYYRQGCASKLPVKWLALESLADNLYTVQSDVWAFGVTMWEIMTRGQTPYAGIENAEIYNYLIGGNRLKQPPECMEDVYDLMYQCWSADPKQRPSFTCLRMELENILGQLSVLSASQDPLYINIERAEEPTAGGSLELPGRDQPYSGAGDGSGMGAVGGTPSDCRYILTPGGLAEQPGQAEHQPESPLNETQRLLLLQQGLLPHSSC

[9] = molecular target: 456 kinases (of these 395 non-mutant kinases) (Homo sapiens, UniProt Q9UBF8); conditions: PIK4CB; 10 μM
Chain of 456 kinases (of these 395 non-mutant kinases) (Homo sapiens, UniProt Q9UBF8) (Q9UBF8 2-816 limits assumed, change not shown): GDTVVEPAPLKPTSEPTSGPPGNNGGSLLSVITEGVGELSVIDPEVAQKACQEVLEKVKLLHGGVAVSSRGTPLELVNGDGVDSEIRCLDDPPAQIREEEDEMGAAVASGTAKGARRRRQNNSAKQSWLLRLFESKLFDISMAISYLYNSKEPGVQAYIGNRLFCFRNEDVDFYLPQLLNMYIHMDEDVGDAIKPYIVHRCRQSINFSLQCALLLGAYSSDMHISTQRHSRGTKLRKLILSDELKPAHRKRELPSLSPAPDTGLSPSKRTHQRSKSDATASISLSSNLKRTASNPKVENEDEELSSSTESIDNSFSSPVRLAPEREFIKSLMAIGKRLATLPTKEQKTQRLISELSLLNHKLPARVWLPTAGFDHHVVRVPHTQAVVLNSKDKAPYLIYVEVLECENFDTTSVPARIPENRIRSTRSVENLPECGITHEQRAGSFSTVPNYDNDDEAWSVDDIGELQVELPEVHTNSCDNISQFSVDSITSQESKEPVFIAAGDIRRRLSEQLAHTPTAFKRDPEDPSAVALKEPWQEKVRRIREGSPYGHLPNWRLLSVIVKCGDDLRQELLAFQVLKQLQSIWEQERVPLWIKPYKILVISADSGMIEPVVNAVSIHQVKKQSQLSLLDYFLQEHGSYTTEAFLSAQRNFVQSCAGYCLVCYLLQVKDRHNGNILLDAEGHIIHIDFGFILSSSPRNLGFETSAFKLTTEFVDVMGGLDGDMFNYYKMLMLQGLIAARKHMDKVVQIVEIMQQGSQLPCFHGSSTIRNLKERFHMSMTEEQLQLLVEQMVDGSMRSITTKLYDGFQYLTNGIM

[10] = molecular target: 456 kinases (of these 395 non-mutant kinases) (Homo sapiens, UniProt P0C264); conditions: SgK110; 10 μM
[11] = molecular target: 456 kinases (of these 395 non-mutant kinases) (Homo sapiens, UniProt Q15418); conditions: 10 μM
[12] = molecular target: 456 kinases (of these 395 non-mutant kinases) (Homo sapiens, UniProt Q16288); conditions: TRKC; 10 μM
[13] = molecular target: 456 kinases (of these 395 non-mutant kinases) (Homo sapiens, UniProt O14976); conditions: GAK; 10 μM
[14] = molecular target: 456 kinases (of these 395 non-mutant kinases) (Homo sapiens, UniProt Q9UPE1); conditions: SRPK3; 10 μM
[15] = molecular target: 456 kinases (of these 395 non-mutant kinases) (Homo sapiens, UniProt Q05655); conditions: PRKCD; 10 μM
[16] = molecular target: 456 kinases (of these 395 non-mutant kinases) (Homo sapiens, UniProt P45983); conditions: JNK1; 10 μM
[17] = molecular target: 456 kinases (of these 395 non-mutant kinases) (Homo sapiens, UniProt P45985); conditions: MEK4; 10 μM
Chain of 456 kinases (of these 395 non-mutant kinases) (Homo sapiens, UniProt P45985) (P45985 2-399 limits assumed, change not shown): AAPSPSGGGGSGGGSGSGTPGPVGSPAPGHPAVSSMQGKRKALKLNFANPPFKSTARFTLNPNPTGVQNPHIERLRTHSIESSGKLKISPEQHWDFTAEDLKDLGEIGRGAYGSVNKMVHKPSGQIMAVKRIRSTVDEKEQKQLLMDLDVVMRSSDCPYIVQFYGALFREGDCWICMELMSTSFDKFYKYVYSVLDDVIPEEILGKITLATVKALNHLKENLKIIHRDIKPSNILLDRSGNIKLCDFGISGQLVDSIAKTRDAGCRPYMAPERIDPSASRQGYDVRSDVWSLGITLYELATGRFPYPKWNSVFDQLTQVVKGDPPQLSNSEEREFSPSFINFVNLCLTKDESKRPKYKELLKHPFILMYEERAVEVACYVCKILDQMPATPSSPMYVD

[18] = molecular target: 456 kinases (of these 395 non-mutant kinases) (Homo sapiens, UniProt P49760); conditions: CLK2; 10 μM
[19] = molecular target: 456 kinases (of these 395 non-mutant kinases) (Homo sapiens, UniProt P23458); conditions: 10 μM
[20] = molecular target: 456 kinases (of these 395 non-mutant kinases) (Homo sapiens, UniProt P09769); conditions: FGR; 10 μM
[21] = molecular target: 456 kinases (of these 395 non-mutant kinases) (Homo sapiens, UniProt O00506); conditions: YSK1; 10 μM
[22] = molecular target: 456 kinases (of these 395 non-mutant kinases) (Homo sapiens, UniProt Q8N4C8); conditions: MINK; 10 μM
[23] = molecular target: 456 kinases (of these 395 non-mutant kinases) (Homo sapiens, UniProt P10721, D816V); conditions: KIT(D816V); 10 μM
Chain of 456 kinases (of these 395 non-mutant kinases) (Homo sapiens, UniProt P10721, D816V) (P10721 26-976 D816V limits assumed): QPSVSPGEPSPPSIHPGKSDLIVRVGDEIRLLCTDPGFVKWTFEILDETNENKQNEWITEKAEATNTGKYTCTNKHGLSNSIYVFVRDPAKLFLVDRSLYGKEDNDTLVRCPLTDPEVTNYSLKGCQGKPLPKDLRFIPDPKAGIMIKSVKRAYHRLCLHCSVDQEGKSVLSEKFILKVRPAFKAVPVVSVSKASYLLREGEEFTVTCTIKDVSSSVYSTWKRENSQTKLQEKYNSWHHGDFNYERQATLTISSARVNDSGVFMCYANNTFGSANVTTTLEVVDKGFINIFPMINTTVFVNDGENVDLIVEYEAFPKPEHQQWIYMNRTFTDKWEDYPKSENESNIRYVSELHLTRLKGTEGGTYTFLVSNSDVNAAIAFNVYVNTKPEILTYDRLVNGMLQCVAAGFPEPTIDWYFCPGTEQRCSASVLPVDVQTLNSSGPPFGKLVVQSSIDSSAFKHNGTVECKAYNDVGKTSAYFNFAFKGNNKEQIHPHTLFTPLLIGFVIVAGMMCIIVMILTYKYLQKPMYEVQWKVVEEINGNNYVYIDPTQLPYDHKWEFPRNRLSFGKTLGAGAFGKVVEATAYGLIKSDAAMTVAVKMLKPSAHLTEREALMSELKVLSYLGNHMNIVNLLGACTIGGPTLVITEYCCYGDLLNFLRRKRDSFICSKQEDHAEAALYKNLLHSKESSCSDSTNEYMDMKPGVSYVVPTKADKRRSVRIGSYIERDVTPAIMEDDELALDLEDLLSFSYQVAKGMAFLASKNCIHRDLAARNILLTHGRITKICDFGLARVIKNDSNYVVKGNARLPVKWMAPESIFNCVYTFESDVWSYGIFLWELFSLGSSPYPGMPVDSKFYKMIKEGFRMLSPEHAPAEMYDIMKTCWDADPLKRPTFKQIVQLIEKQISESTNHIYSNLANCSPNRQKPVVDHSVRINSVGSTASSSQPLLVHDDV

[24] = molecular target: 456 kinases (of these 395 non-mutant kinases) (Homo sapiens, UniProt Q02779); conditions: MLK2; 10 μM
[25] = molecular target: 456 kinases (of these 395 non-mutant kinases) (Homo sapiens, UniProt Q96Q40); conditions: PFTAIRE2; 10 μM
[26] = molecular target: 456 kinases (of these 395 non-mutant kinases) (Homo sapiens, UniProt Q9BYT3); conditions: STK33; 10 μM
[27] = molecular target: 456 kinases (of these 395 non-mutant kinases) (Homo sapiens, UniProt Q13555); conditions: CAMK2G; 10 μM
[28] = molecular target: 456 kinases (of these 395 non-mutant kinases) (Homo sapiens, UniProt Q6XUX3); conditions: RIPK5; 10 μM
[29] = molecular target: 456 kinases (of these 395 non-mutant kinases) (Homo sapiens, UniProt P36888, R834Q); conditions: FLT3(R834Q); 10 μM
[30] = molecular target: 456 kinases (of these 395 non-mutant kinases) (Homo sapiens, UniProt P53779); conditions: JNK3; 10 μM
[31] = molecular target: 456 kinases (of these 395 non-mutant kinases) (Homo sapiens, UniProt O95819); conditions: MAP4K4; 10 μM
Chain of 456 kinases (of these 395 non-mutant kinases) (Homo sapiens, UniProt O95819) (O95819 2-1239 limits assumed, change not shown): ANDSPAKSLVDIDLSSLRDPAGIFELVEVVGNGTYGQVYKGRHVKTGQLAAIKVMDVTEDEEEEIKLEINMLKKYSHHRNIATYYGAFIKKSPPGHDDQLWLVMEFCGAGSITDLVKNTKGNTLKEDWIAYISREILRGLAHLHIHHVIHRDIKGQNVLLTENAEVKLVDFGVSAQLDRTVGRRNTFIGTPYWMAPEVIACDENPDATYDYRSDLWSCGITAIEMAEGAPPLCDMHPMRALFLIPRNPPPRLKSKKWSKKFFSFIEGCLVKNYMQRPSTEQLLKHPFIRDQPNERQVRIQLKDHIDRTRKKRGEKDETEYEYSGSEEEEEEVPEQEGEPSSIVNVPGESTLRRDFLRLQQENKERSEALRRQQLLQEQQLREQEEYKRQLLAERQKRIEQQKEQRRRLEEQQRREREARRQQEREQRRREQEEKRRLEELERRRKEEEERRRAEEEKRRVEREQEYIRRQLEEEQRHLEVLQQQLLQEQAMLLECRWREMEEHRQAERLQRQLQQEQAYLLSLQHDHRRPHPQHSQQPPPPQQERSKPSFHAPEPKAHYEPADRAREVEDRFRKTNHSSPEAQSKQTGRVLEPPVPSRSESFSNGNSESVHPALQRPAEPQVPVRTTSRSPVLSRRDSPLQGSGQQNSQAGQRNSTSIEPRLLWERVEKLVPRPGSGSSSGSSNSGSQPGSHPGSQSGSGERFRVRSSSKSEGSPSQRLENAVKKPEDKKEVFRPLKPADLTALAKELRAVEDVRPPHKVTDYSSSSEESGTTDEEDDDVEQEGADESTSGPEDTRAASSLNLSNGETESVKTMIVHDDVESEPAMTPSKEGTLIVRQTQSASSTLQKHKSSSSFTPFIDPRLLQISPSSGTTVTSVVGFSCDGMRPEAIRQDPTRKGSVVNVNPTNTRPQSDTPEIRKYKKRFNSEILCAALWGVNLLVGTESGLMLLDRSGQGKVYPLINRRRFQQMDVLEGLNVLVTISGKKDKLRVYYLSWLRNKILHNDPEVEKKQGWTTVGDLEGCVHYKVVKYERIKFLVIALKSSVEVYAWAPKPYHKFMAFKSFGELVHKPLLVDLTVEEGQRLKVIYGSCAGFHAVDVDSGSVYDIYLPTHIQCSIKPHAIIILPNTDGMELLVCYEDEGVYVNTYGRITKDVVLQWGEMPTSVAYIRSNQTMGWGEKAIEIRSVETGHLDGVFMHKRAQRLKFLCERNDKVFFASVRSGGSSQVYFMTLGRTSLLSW

Chain of 456 kinases (of these 395 non-mutant kinases) (Homo sapiens, UniProt Q13557) (Q13557 2-499 limits assumed, change not shown): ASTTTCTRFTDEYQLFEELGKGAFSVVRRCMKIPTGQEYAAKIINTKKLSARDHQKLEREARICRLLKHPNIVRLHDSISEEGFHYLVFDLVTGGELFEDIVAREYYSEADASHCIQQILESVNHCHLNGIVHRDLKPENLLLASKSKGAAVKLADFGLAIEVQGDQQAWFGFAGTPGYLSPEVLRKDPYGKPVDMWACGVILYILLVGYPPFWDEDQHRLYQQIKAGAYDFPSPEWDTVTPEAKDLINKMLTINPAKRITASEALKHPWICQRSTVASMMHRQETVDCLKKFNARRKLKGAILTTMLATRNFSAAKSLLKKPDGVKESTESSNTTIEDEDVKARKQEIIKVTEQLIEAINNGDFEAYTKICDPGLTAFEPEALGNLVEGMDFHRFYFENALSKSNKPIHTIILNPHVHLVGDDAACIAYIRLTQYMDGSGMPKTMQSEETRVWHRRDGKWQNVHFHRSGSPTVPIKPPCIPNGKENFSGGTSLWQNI

CCc1ccccc1NC(=O)c1c(C)nsc1Nc1cnc2cc(F)ccc2n1 [Example 20, N-(2-Ethylphenyl)-5-[(6-fluoroquinoxalin-2-yl)amino]-3-methyl-1,2-thiazole-4-carboxamide]
% Ctrl @ 10 μM [1]: 89 % Ctrl | % Ctrl @ 10 μM [2]: 76 % Ctrl | % Ctrl @ 10 μM [3]: 100 % Ctrl | % Ctrl @ 10 μM [4]: 96 % Ctrl | % Ctrl @ 10 μM [5]: 100 % Ctrl | % Ctrl @ 10 μM [6]: 81 % Ctrl | % Ctrl @ 10 μM [7]: 96 % Ctrl | % Ctrl @ 10 μM [8]: 56 % Ctrl | % Ctrl @ 10 μM [9]: 78 % Ctrl | % Ctrl @ 10 μM [10]: 100 % Ctrl | % Ctrl @ 10 μM ([11]; RSK1(Kin.Dom.1-N-terminal)): 95 % Ctrl | % Ctrl @ 10 μM ([11]; RSK1(Kin.Dom.2-C-terminal)): 86 % Ctrl | % Ctrl @ 10 μM [12]: 93 % Ctrl | % Ctrl @ 10 μM [13]: 96 % Ctrl | % Ctrl @ 10 μM [14]: 87 % Ctrl | % Ctrl @ 10 μM [15]: 85 % Ctrl | % Ctrl @ 10 μM [16]: 100 % Ctrl | % Ctrl @ 10 μM [17]: 67 % Ctrl | % Ctrl @ 10 μM [18]: 77 % Ctrl | % Ctrl @ 10 μM ([19]; JAK1(JH1domain-catalytic)): 100 % Ctrl | % Ctrl @ 10 μM ([19]; JAK1(JH2domain-pseudokinase)): 71 % Ctrl | % Ctrl @ 10 μM [20]: 80 % Ctrl | % Ctrl @ 10 μM [21]: 100 % Ctrl | % Ctrl @ 10 μM [22]: 100 % Ctrl | % Ctrl @ 10 μM [23]: 61 % Ctrl | % Ctrl @ 10 μM [24]: 78 % Ctrl | % Ctrl @ 10 μM [25]: 84 % Ctrl | % Ctrl @ 10 μM [26]: 100 % Ctrl | % Ctrl @ 10 μM [27]: 75 % Ctrl | % Ctrl @ 10 μM [28]: 100 % Ctrl | % Ctrl @ 10 μM [29]: 93 % Ctrl | % Ctrl @ 10 μM [30]: 100 % Ctrl | % Ctrl @ 10 μM [31]: 100 % Ctrl
